Literature values, collected in patent publication US20110028397A1, “Use of Urokinase Type Plasminogen Activator Inhibitors for the Treatment of Corneal Disorders” (priority 2007, published 2011).

Experiments:
[1] = in vivo, sc
[2] = eye drop prepared freshly daily, stored in refrigerator between uses
thrombin = thrombin (Homo sapiens, UniProt P00734)

In the case of iBuOCO-D-Ser-Ala-Arg-aldehyde, the biological availability [1] is given as 87%.

In the case of `N=C(N)NCCC[C@@H](C=O)NC(=O)[C@@H]1CCCN1C(=O)[C@H](N)Cc1ccccc1` [Ald-1, D-Phe-Pro-Arg-aldehyde], the “inhibitory activity on storage” value [2] is listed as “retains its inhibitory activity”, the Ki (thrombin) is listed as 75 nM and the anticoagulant activity (in vitro and in vivo) is listed as “significant anticoagulant activity”. For the same molecule, the “antithrombotic effect in in vivo studies” value (in vivo) was “effective antithrombotic drug”.
